Experiments:
[1] = Solubility of the compound in phosphate buffered saline under neutral condition; format: physicochemical; settings: buffer
[2] = Solubility of the compound in phosphate buffered saline under acidic condition; format: physicochemical; settings: buffer
[3] = Intrinsic clearance in mouse liver microsomes at 1 uM after 60 mins by LC-MS/MS analysis; format: ADME, Microsome; settings: read-out: CLH
[4] = Intrinsic clearance in human liver microsomes at 1 uM after 60 mins by LC-MS/MS analysis; format: ADME; settings: read-out: CLH
[5] = Half life in mouse liver microsomes at 1 uM after 60 mins by LC-MS/MS analysis; format: ADME, Microsome
[6] = Half life in human liver microsomes at 1 uM after 60 mins by LC-MS/MS analysis; format: ADME
[7] = Selectivity ratio of IC50 for chloroquine-sensitive Plasmodium falciparum 3D7 to IC50 for chloroquine and mefloquine-resistant Plasmodium falciparum Dd2; format: functional
[8] = Selectivity index, ratio of IC50 for human NFF to IC50 for chloroquine and mefloquine-resistant Plasmodium falciparum Dd2
[9] = Selectivity index, ratio of IC50 for human NFF to IC50 for chloroquine-sensitive Plasmodium falciparum 3D7
[10] = tested on: NFF; test: Cytotoxicity against human NFF after 72 hrs by SRB assay; format: cell-based
[11] = tested on: Plasmodium falciparum; test: Antimalarial activity against chloroquine and mefloquine-resistant Plasmodium falciparum Dd2 assessed as [3H]-hypoxanthine incorporation after 48 hrs by liquid scintillation counting analysis; format: functional
[12] = tested on: Plasmodium falciparum; test: Antimalarial activity against chloroquine-sensitive Plasmodium falciparum 3D7 assessed as [3H]-hypoxanthine incorporation after 48 hrs by liquid scintillation counting analysis; format: functional, organism-based
[13] = tested on: Plasmodium falciparum; test: Antimalarial activity against chloroquine and mefloquine-resistant Plasmodium falciparum Dd2 assessed as growth inhibition; format: functional
[14] = tested on: Plasmodium falciparum; test: Antimalarial activity against chloroquine-sensitive Plasmodium falciparum 3D7 assessed as growth inhibition; format: functional, organism-based
[15] = tested on: Mus musculus; test: Toxicity in Swiss mouse assessed as ruffled coat at 16 mg/kg measured up to 2 hrs post compound administration; format: organism-based; design: dose 16 mg/kg; settings: in vivo
[16] = tested on: Mus musculus; test: Toxicity in Swiss mouse assessed as lethargy at 16 mg/kg measured up to 2 hrs post compound administration; format: organism-based; design: dose 16 mg/kg; settings: in vivo
[17] = tested on: Mus musculus; test: Toxicity in Swiss mouse assessed as whole body tremor at 16 mg/kg measured up to 2 hrs post compound administration; format: organism-based; design: dose 16 mg/kg; settings: in vivo
[18] = tested on: Mus musculus; test: Toxicity in Swiss mouse assessed as ruffled coat at 8 mg/kg administered for 4 days; format: organism-based; design: dose 8 mg/kg; settings: in vivo, 96 h
[19] = tested on: Mus musculus; test: Toxicity in Swiss mouse assessed as whole body tremor at 8 mg/kg administered for 4 days measured after 1 to 2 hrs of each dose; format: organism-based; design: dose 8 mg/kg; settings: in vivo
[20] = tested on: Mus musculus; test: Toxicity in Swiss mouse assessed as swollen conjuctiva of eyes at 4 to 8 mg/kg; format: organism-based; design: dose 4-8 mg/kg; settings: in vivo
[21] = tested on: Mus musculus; test: Toxicity in Swiss mouse assessed as orange urine at 4 to 8 mg/kg; format: organism-based; design: dose 4-8 mg/kg; settings: in vivo
[22] = tested on: Mus musculus; test: Toxicity in Swiss mouse assessed as difficulty in movement at 4 to 8 mg/kg; format: organism-based; design: dose 4-8 mg/kg; settings: in vivo
[23] = tested on: Mus musculus; test: Toxicity in Swiss mouse assessed as whole body tremor at 4 to 8 mg/kg; format: organism-based; design: dose 4-8 mg/kg; settings: in vivo
[24] = tested on: Mus musculus; test: Toxicity in Swiss mouse assessed as whole body tremor at 4 to 8 mg/kg measured up to 15 mins post compound administration; format: organism-based; design: dose 4-8 mg/kg; settings: in vivo, 0.25 h
[25] = tested on: Mus musculus; test: Toxicity in Swiss mouse assessed as panting at 4 to 8 mg/kg measured up to 15 mins post compound administration; format: organism-based; design: dose 4-8 mg/kg; settings: in vivo, 0.25 h

Structure (SMILES): CNCCc1c[nH]c2c1C(=O)C1=C(NC=CS1(=O)=O)C2=O.Cl
- solubility [1]: soluble
- solubility [2]: soluble
- microsomal CLint at 1 µM [3]: 11 µL/min/mg
- microsomal CLint at 1 µM [4]: 17 µL/min/mg
- half-life at 1 µM [5]: 2.52 h
- half-life at 1 µM [6]: 1.67 h
- Ratio IC50 [7]: 3.4
- Ratio IC50 [8]: 31
- Ratio IC50 [9]: 9
- IC50 [10]: 1480 nM
- IC50 [11]: 47 nM
- IC50 [12]: 160 nM

Structure (SMILES): Cn1cc(CCN)c2c1C(=O)C1=C(NC=CS1(=O)=O)C2=O
- Ratio IC50 [8]: 81
- Ratio IC50 [9]: 32
- IC50 [10]: 13200 nM
- IC50 [11]: 162 nM
- IC50 [12]: 416 nM

Structure (SMILES): Cl.NCCc1c[nH]c2c1C(=O)C1=C(NC=CS1(=O)=O)C2=O
- solubility [1]: soluble
- solubility [2]: soluble
- IC50 [13]: 6.6 nM
- IC50 [14]: 51 nM
- Activity [15]: Toxic
- Activity [16]: Toxic
- Activity [17]: Toxic
- Activity [18]: Toxic
- Activity [19]: Toxic
- microsomal CLint at 1 µM [3]: 68 µL/min/mg
- microsomal CLint at 1 µM [4]: 46 µL/min/mg
- half-life at 1 µM [5]: 0.417 h
- half-life at 1 µM [6]: 0.617 h
- Ratio IC50 [7]: 4.3
- Ratio IC50 [8]: 60
- Ratio IC50 [9]: 14
- IC50 [10]: 1500 nM
- IC50 [11]: 24 nM
- IC50 [12]: 104 nM

Structure (SMILES): CNCCc1cn(C)c2c1C(=O)C1=C(NC=CS1(=O)=O)C2=O.Cl
- solubility [1]: soluble
- solubility [2]: soluble
- Activity [20]: Toxic
- Activity [21]: Toxic
- Activity [22]: Toxic
- Activity [23]: Toxic
- microsomal CLint at 1 µM [3]: < 7 µL/min/mg
- microsomal CLint at 1 µM [4]: < 7 µL/min/mg
- half-life at 1 µM [5]: > 4.17 h
- half-life at 1 µM [6]: > 4.17 h
- Ratio IC50 [7]: 1.7
- Ratio IC50 [8]: 29
- Ratio IC50 [9]: 17
- IC50 [10]: 2310 nM
- IC50 [11]: 79 nM
- IC50 [12]: 137 nM

Structure (SMILES): CCN(CC)CCCC(C)Nc1ccnc2cc(Cl)ccc12 (configuration not stated) [CHLOROQUINE]
- IC50 [10]: 45900 nM

Structure (SMILES): Cl.Cn1cc(CCN)c2c1C(=O)C1=C(C2=O)S(=O)(=O)C=CN1
- solubility [1]: soluble
- solubility [2]: soluble
- Activity [24]: Toxic
- Activity [25]: Toxic
- microsomal CLint at 1 µM [3]: < 7 µL/min/mg
- microsomal CLint at 1 µM [4]: < 7 µL/min/mg
- half-life at 1 µM [5]: > 4.17 h
- half-life at 1 µM [6]: > 4.17 h
- Ratio IC50 [7]: 1.7
- Ratio IC50 [8]: 40
- Ratio IC50 [9]: 18
- IC50 [10]: 2310 nM
- IC50 [11]: 57 nM
- IC50 [12]: 128 nM
